How the values were obtained:
Pyricularia orzae = experiment: whole plant or invertebrate; type: in vivo, Pyricularia orzae (rice plant, Chukyo Asahi); conditions: in Oryza sativa, 120 h, read-out: Protective value
Botrytis cinerea = experiment: Test 9: protective value on cucumber inoculated with Botrytis cinerea; type: in vivo, Botrytis cinerea (cucumber plant, Suyo); conditions: 72 h; for pest or weed control at 250 ppm: 10 ml sprayed, lesion length three days after inoculation
Protocol: In each unglazed pot having a diameter of 9 cm, cucumber plant (Suyo) was cultured. At one leaf stage, 10 ml. of each solution of each active ingredient having a concentration of 250 ppm was sprayed by a spray gun. After maintaining the pot in a green-house at 24° to 25° C. for one day, a disc (punched agar disc) obtained by culturing Botrytis cinerea on a potato-glucose-agar medium (PDA medium) was put on the leaf of cucumber to inoculate them. Three days after the inoculation, lengths of lesions were measured and each protective value was calculated as Test 2.
In accordance with the test, except the concentration of the active ingredient was decreased, the comparative tests of Compound No. 7 and Reference compound were carried out.

Sphaerotheca fuliginea = experiment: whole plant or invertebrate; type: in vivo, Sphaerotheca fuliginea (cucumber plant, Suyo); conditions: Podosphaera fuliginea, in Cucumis sativus, 240 h, read-out: Protective value
Tetranychus telarius (L) = experiment: Test 6: mortality of larvae and adults of Tetranychus telarius on kidney bean leaf; type: in vivo; conditions: foliar, 72 h, leaf dipped, wettable powder of Composition No. 5, three days after treatment, read-out: Percent mortality
Protocol: Young seedling of kidney bean treated to cut off leaves except one primordial leaf was transplanted in a cup and about 30 of larvae and adults of Tetranychus telarius (L) were inoculated on the primordial leaf. This was dipped for 10 seconds in each solution obtained by diluting each wettable powder of Composition No. 5 containing each active ingredient with water at the concentration of 800 ppm and was dried in air and was kept in a constant temperature chamber with lighting at 28° C. Three days after the treatment, mortality was measured and each percent mortality was calculated as follows. [formula]

Rhizoctonia solani = experiment: whole plant or invertebrate; type: in vivo, Rhizoctonia solani (rice plant, Chukyo Asahi); conditions: in Oryza sativa, 120 h, read-out: Preventive value
Plutella xylostella = experiment: Test 11: mortality of larvae of Plutella xylostella on treated cabbage leaf; type: in vivo; conditions: foliar, 192 h, leaf dipped, emulsifiable concentrate Composition No. 3, eight days, read-out: Percent mortality
From the text: Each emulsifiable concentrate of each active ingredient as Composition No. 3 was dispersed in water at a concentration of 800 ppm. Each leaf of cabbage was dipped into each emulsion for about 10 seconds and taken up and dried in air.
A wet filter paper was put in each Petri dish (diameter of 9 cm), and each treated leaf was put on the filter paper. Larvae of Plutella xylostella at 2nd to 3rd instar were charged and the dish was covered with a cap and kept in a constant temperature chamber with lighting at 28° C. Eight days after the charge, mortality was measured and each percent mortality was calculated.

Callosobruchus chinensis = experiment: Test 7: mortality of adults of Callosobruchus chinensis on film in Petri-dish; type: in vivo; conditions: 400 μg per Petri-dish of 9 cm, 25° C., 24 hours, read-out: Percent mortality
Protocol: Each active ingredient was dissolved in acetone to prepare each solution having the specific concentration. 1 Ml. of the solution (400 μg. of each active ingredient) was uniformly adhered on the inner bottom surface of Petri-dish having a diameter of 9 cm to form a film. In the dish, 15 of adults of Callosobruchus chinensis were charged and the dish was covered with a cap and kept in a constant temperature chamber at 25° C. for 24 hours. Each percent mortality was calculated as that of Test 6.

[1] = test system: Collectotrichum lagenarium; experiment: Test 3: protective value on cucumber inoculated with Collectotrichum lagenarium; type: in vivo, Collectotrichum lagenarium (cucumber plant, Suyo); conditions: 500 ppm, 10 ml sprayed; lesions six days after inoculation
Protocol: In each unglazed pot having a diameter of 9 cm, cucumber plant (Suyo) was cultured. At one leaf stage, 10 ml. of each solution of each active ingredient having a concentration of 500 ppm was sprayed by a spray gun. After maintaining the pot in a green-house at 24° to 25° C. for one day, each spore suspension of Collectotrichum lagenarium was sprayed. Six days after the inoculation, number of lesions on the first leaf of seedling was observed. The protective value was calculated as Test 1.

Row | Structure (SMILES) | pest or weed control at 100 ppm (Pyricularia orzae) [%] | mortality at 800 ppm (Tetranychus telarius (L)) [%] | pest or weed control at 100 ppm (Rhizoctonia solani) [%] | mortality at 800 ppm (Plutella xylostella) [%] | mortality at 400 µg/dish (Callosobruchus chinensis) [%] | also measured
1 | O=[N+]([O-])c1cc(C(F)(F)F)cc([N+](=O)[O-])c1Nc1ncc(C(F)(F)F)cc1Br [compound 22] | 100 | 100 | – | – | – | pest or weed control at 250 ppm (Botrytis cinerea): 100%; pest or weed control at 500 ppm (Sphaerotheca fuliginea): 100%
2 | O=[N+]([O-])c1cc(C(F)(F)F)cc([N+](=O)[O-])c1Nc1ncccc1C(F)(F)F [compound 37] | 100 | 100 | 100 | – | – | pest or weed control at 250 ppm (Botrytis cinerea): 93%
3 | O=[N+]([O-])c1cc([N+](=O)[O-])c(Nc2ccc(Cl)cn2)c(C(F)(F)F)c1 [compound 52] | – | – | – | 100 | 100 | –
4 | O=[N+]([O-])c1cc([N+](=O)[O-])c(Nc2ncc(Cl)cc2Cl)c(C(F)(F)F)c1 [compound 60, N-(3,5-dichloro-2-pyridyl)-2,4-dinitro-6-trifluoromethylaniline] | – | – | 100 | 100 | 100 | pest or weed control at 50 ppm (Pyricularia orzae): 100%
5 | O=[N+]([O-])c1cc(C(F)(F)F)cc(C(F)(F)F)c1Nc1ncc(Cl)cc1Cl [compound 90] | – | 100 | – | – | – | –
6 | CCCOc1c(C(F)(F)F)cc([N+](=O)[O-])c(Nc2ncc(C(F)(F)F)cc2Cl)c1[N+](=O)[O-] [compound 41] | 95 | 100 | 95 | 100 | – | –
7 | O=[N+]([O-])c1cc(C(F)(F)F)cc(C(F)(F)F)c1Nc1ncc(C(F)(F)F)cc1Cl [compound 89] | – | 100 | – | – | – | –
8 | CCOc1c(C(F)(F)F)cc([N+](=O)[O-])c(Nc2ncc(C(F)(F)F)cc2Cl)c1[N+](=O)[O-] [compound 40, N-(3-chloro-5-trifluoromethyl-2-pyridyl)-2,6-dinitro-3-ethoxy-4-trifluoromethylaniline] | 100 | 100 | 100 | 100 | – | –
9 | O=[N+]([O-])c1cc([N+](=O)[O-])c(Nc2ncccc2C(F)(F)F)c(C(F)(F)F)c1 [compound 81] | – | – | – | 100 | 100 | pest or weed control at 50 ppm (Pyricularia orzae): 100%
10 | O=[N+]([O-])c1cc([N+](=O)[O-])c(Nc2ncc(Cl)cc2Br)c(C(F)(F)F)c1 [Compound No. 62] | – | – | 100 | 100 | 100 | pest or weed control at 100 ppm (Sphaerotheca fuliginea): 100%
11 | O=[N+]([O-])c1cc(C(F)(F)F)cc([N+](=O)[O-])c1Nc1c(Cl)cncc1Cl [compound 15, N-(3,5-dichloro-4-pyridyl)-2,6-dinitro-4-trifluoromethylaniline] | 100 | 100 | 100 | 100 | – | pest or weed control at 500 ppm (Sphaerotheca fuliginea): 100%
12 | O=[N+]([O-])c1cc([N+](=O)[O-])c(Nc2nc(Cl)ccc2C(F)(F)F)c(C(F)(F)F)c1 [compound 66, N-(2-chloro-5-trifluoromethyl-6-pyridyl)-2,4-dinitro-6-trifluoromethylaniline] | – | – | – | 100 | – | pest or weed control at 100 ppm (Sphaerotheca fuliginea): 100%
13 | O=[N+]([O-])c1cc([N+](=O)[O-])c(Nc2ccc(Br)cn2)c(C(F)(F)F)c1 [compound 54] | – | – | 90 | – | 100 | pest or weed control at 50 ppm (Pyricularia orzae): 100%
14 | O=[N+]([O-])c1cc(C(F)(F)F)c(Cl)c([N+](=O)[O-])c1Nc1ncc(Cl)cc1C(F)(F)F [compound 29] | 100 | 100 | 100 | 100 | – | pest or weed control at 250 ppm (Botrytis cinerea): 100%
15 | O=[N+]([O-])c1cc(C(F)(F)F)c(Cl)c([N+](=O)[O-])c1Nc1nc(Cl)c(Br)cc1C(F)(F)F [compound 31] | – | – | 90 | – | – | pest or weed control at 500 ppm (Sphaerotheca fuliginea): 100%
16 | O=[N+]([O-])c1cc(C(F)(F)F)cc([N+](=O)[O-])c1Nc1nc(Cl)c(C(F)(F)F)cc1Br [compound 32] | 100 | – | 100 | – | – | pest or weed control at 500 ppm (Sphaerotheca fuliginea): 100%
17 | O=[N+]([O-])c1ccc(Nc2c(Cl)c(F)nc(F)c2Cl)c(C(F)(F)F)c1 [Reference compound, N-(2,6-difluoro-3,5-dichloro-4-pyridyl)-N-(4-nitro-2-trifluoromethylphenyl)amine, reference compound] | – | 40 | – | 0 | – | pest or weed control at 12.5 ppm (Pyricularia orzae): 0%; pest or weed control at 25 ppm (Pyricularia orzae): 0%; pest or weed control at 62.5 ppm (Botrytis cinerea; 62.5 ppm): 0%
18 | O=[N+]([O-])c1cc([N+](=O)[O-])c(Nc2ncc(Br)cc2Br)c(C(F)(F)F)c1 [compound 61] | – | – | 100 | 100 | 100 | pest or weed control at 50 ppm (Pyricularia orzae): 100%
19 | O=[N+]([O-])c1cc(C(F)(F)F)c(Oc2ccc(O)cc2)c([N+](=O)[O-])c1Nc1ncc(C(F)(F)F)cc1Cl [compound 49] | – | 100 | 100 | – | – | pest or weed control at 250 ppm (Botrytis cinerea): 100%
20 | O=[N+]([O-])c1cc(C(F)(F)F)cc([N+](=O)[O-])c1Nc1ncc(C(F)(F)F)cc1Cl [Compound No. 2] | 100 | – | 100 | – | 100 | –
21 | Cc1nc(Nc2c([N+](=O)[O-])cc([N+](=O)[O-])cc2C(F)(F)F)c(Cl)c(C)c1Cl [compound 77, N-(3,5-dichloro-4,6-dimethyl-2-pyridyl)-2,4-dinitro-6-trifluoromethylaniline] | – | – | – | 100 | 100 | –
22 | O=[N+]([O-])c1cc([N+](=O)[O-])c(Nc2ncc(C(F)(F)F)cc2Cl)c(C(F)(F)F)c1 [compound 65] | – | – | 100 | 100 | 100 | pest or weed control at 50 ppm (Pyricularia orzae): 100%
23 | O=[N+]([O-])c1cc(C(F)(F)F)cc([N+](=O)[O-])c1Nc1ncc(Cl)cc1C(F)(F)F [compound 27] | 100 | 100 | – | – | – | –
24 | O=[N+]([O-])c1cc(C(F)(F)F)cc([N+](=O)[O-])c1Nc1ncc(Br)cc1C(F)(F)F [compound 28] | 100 | 100 | – | – | – | –
25 | O=[N+]([O-])c1cc(C(F)(F)F)c(Cl)c([N+](=O)[O-])c1Nc1ncc(C(F)(F)F)cc1Br [compound 21] | 100 | – | – | – | – | pest or weed control at 250 ppm (Botrytis cinerea): 100%; pest or weed control at 500 ppm (Sphaerotheca fuliginea): 100%
26 | O=[N+]([O-])c1cc([N+](=O)[O-])c(Nc2ncc(Br)cc2Cl)c(C(F)(F)F)c1 [compound 63] | – | – | 100 | 100 | 100 | –
27 | Cc1c(Cl)cnc(Nc2c([N+](=O)[O-])cc(C(F)(F)F)c(Cl)c2[N+](=O)[O-])c1Cl [compound 12] | 100 | – | – | – | – | Protective value [1]: 75%
28 | O=[N+]([O-])c1cc([N+](=O)[O-])c(Nc2ccc(C(F)(F)F)c(Cl)n2)c(C(F)(F)F)c1 [compound 70] | – | – | – | 100 | 100 | –
29 | O=[N+]([O-])c1cc(C(F)(F)F)c(Cl)c([N+](=O)[O-])c1Nc1ncccc1C(F)(F)F [compound 36] | 100 | – | 92 | – | – | pest or weed control at 250 ppm (Botrytis cinerea): 96%
30 | COc1c(C(F)(F)F)cc([N+](=O)[O-])c(Nc2ncc(C(F)(F)F)cc2Cl)c1[N+](=O)[O-] [compound 39] | 100 | 100 | 100 | – | – | –
